Assay results taken from paper PMC11133627, “CATH-2-derived antimicrobial peptide inhibits multidrug-resistant Escherichia coli infection in chickens” (Frontiers in Cellular and Infection Microbiology, 2024).
Ends that are not written are not given here.

Tests used:
E. coli (ATCC 8739) [1] = assay: Drug-sensitivity test (paper disc, inhibition zone); assay type: cell-based, Escherichia coli; parameters: key: R: resistant strains; I: intermediate strains; S: sensitive strains; conditions: 6 mm antibiotic paper on LB agar, 1×10^6 CFU/mL, 24h 37°C, inhibition zone diameter
Method: (§1) E. coli (ATCC 8739) and clinical isolates of E. coli (E1, E9, E12, E14, E16, and E18) were stored at the Animal Biochemical Laboratory of Shanxi Agricultural University and grown in Luria-Bertani (LB) broth as previously reported ([Zhao et al., 2021]). Circular 6 mm paper pieces were prepared with filter paper and autoclaved for sterilization. […] Then, 0.5 mL of antibiotic solution was added to 100 sterilized papers. Subsequently, the paper pieces were fully infiltrated and dried in a vacuum drying oven to produce antibiotic susceptibility papers. The E. coli strain was retrieved from the -20°C freezer and activated by incubating it on LB agar media at 37°C for 24h. Individual colonies were selected and transferred to LB liquid media. Thereafter, the E. coli suspension was obtained by shaking at 37°C and 160 r/min for 18h. The obtained suspension was centrifuged at 5000 r/min for 5min, after which the supernatant was discarded, and the bacteria were resuspended in fresh medium to a concentration of 1×10^6 CFU/mL. Two hundred microliters of the bacterial suspension mentioned above was spread evenly onto LB agar medium. Then, the antibiotic susceptibility papers were placed on the medium surface using sterile tweezers. After 24h of incubation at 37°C, the diameter of the inhibition zone was measured to determine the susceptibility of E. coli to antibiotics.

[2] = system: E. coli clinical isolate E18; assay: as above; assay type: cell-based, Escherichia coli; parameters: key: R: resistant strains; I: intermediate strains; S: sensitive strains; conditions: 6 mm antibiotic paper on LB agar, 1×10^6 CFU/mL, 24h 37°C, inhibition zone diameter
Method: as §1

[3] = system: E. coli clinical isolate E9; assay: as above; assay type: cell-based, Escherichia coli; parameters: key: R: resistant strains; I: intermediate strains; S: sensitive strains; conditions: 6 mm antibiotic paper on LB agar, 1×10^6 CFU/mL, 24h 37°C, inhibition zone diameter
Method: as §1

[4] = system: E. coli clinical isolate E1; assay type: cell-based; parameters: key: R: resistant strains; I: intermediate strains; S: sensitive strains; conditions: 6 mm antibiotic paper on LB agar, 1×10^6 CFU/mL, 24h 37°C, inhibition zone diameter
Method: as §1

[5] = system: E. coli clinical isolate E12; assay: Drug-sensitivity test (paper disc, inhibition zone); assay type: cell-based, Escherichia coli; parameters: key to Drug sensitivity of E. coli E12: R: resistant strains; I: intermediate strains; S: sensitive strains; conditions: 6 mm antibiotic paper on LB agar, 1×10^6 CFU/mL, 24h 37°C, inhibition zone diameter
Method: as §1

[6] = system: E. coli clinical isolate E14; assay: as above; assay type: cell-based, Escherichia coli; parameters: key to Drug sensitivity of E. coli E14: R: resistant strains; I: intermediate strains; S: sensitive strains; conditions: 6 mm antibiotic paper on LB agar, 1×10^6 CFU/mL, 24h 37°C, inhibition zone diameter
Method: as §1

[7] = system: E. coli clinical isolate E16; assay: as above; assay type: cell-based, Escherichia coli; parameters: key to Drug sensitivity of E. coli E16: R: resistant strains; I: intermediate strains; S: sensitive strains; conditions: 6 mm antibiotic paper on LB agar, 1×10^6 CFU/mL, 24h 37°C, inhibition zone diameter
Method: as §1

E. coli (E16) = assay: Chicken infection with MDR E. coli; assay type: in vivo
Method: Except for the blank control group injected with 500 μL of normal saline, the other four groups were injected with 500 μL of 3×10^9 CFU/mL E. coli (E16) into the pectoral muscles. […] Clinical symptoms and were observed and documented for the chickens in each group after infection. After 72h, the chickens in each group were euthanized and examined for internal organ damage. Paraffin sections were prepared for microscopic examination of pathological changes. Under sterile conditions, 1 g samples of heart, liver, and spleen were collected, and each sample was supplemented with 20 mL of sterile PBS. After thorough grinding, the sample was diluted to the appropriate multiple, and 100 μL of the diluent was spread onto LB agar medium. The plates were incubated for 24h, after which the colonies were counted.

E. coli (ATCC 8739) [8] = assay: microbe, parasite or virus in culture; assay type: cell-based, Escherichia coli; conditions: for MIC against E. coli ATCC 8739: ATCC 8739, 18 h; for MBC against E. coli ATCC 8739: ATCC 8739, 24 h
Method: (§2) The minimum inhibitory concentrations (MICs) of the AMPs were determined using the microbroth dilution technique ([van Harten et al., 2021]). One hundred microliters of bacterial suspension at a concentration of 1×10^6 CFU/mL was pipetted into a 96-well plate. Then, 100 μL of AMP or gentamicin at various concentrations was added, while the bacterial suspension without AMPs and blank medium were used as controls.

[9] = system: E. coli clinical isolate E12; assay: microbe, parasite or virus in culture; assay type: cell-based, Escherichia coli; conditions: for MIC against E. coli E12: clinical isolate E12, 18 h; for MBC against E. coli E12: clinical isolate E12, 24 h
Method: as §2

[10] = system: E. coli clinical isolate E14; assay: microbe, parasite or virus in culture; assay type: cell-based, Escherichia coli; conditions: for MIC against E. coli E14: clinical isolate E14, 18 h; for MBC against E. coli E14: clinical isolate E14, 24 h
Method: as §2

[11] = system: E. coli clinical isolate E16; assay: microbe, parasite or virus in culture; assay type: cell-based, Escherichia coli; conditions: for MIC against E. coli E16: clinical isolate E16, 18 h; for MBC against E. coli E16: clinical isolate E16, 24 h
Method: as §2

[12] = system: E. coli clinical isolate E18; assay: microbe, parasite or virus in culture; assay type: cell-based, Escherichia coli; conditions: for MIC against E. coli E18: clinical isolate E18, 18 h; for MBC against E. coli E18: clinical isolate E18, 24 h
Method: as §2

[13] = system: E. coli clinical isolate E9; assay: microbe, parasite or virus in culture; assay type: cell-based, Escherichia coli; conditions: for MIC against E. coli E9: clinical isolate E9, 18 h; for MBC against E. coli E9: clinical isolate E9, 24 h
Method: as §2

[14] = system: E. coli clinical isolate E1; assay: microbe, parasite or virus in culture
Method: as §2

E. coli (ATCC 8739) [15] = assay type: cell-based, Escherichia coli; conditions: ATCC 8739, 1 h
Method: The MICs of the AMPs against E. coli (ATCC 8739) at different temperatures and physiological salt concentrations were evaluated. The thermal stability of the AMPs was assessed by incubating them at a concentration of 500 μg/mL for 1h at 0, 37, and 100°C, using untreated AMPs as a control. The salt ion stability of the AMPs was determined by incubating them at a concentration of 500 μg/mL in solutions of NaCl (150 mM), KCl (4.5 mM), MgCl2 (1 mM), and CaCl2 (2.5 mM) for 1h, using untreated samples as controls. The changes in the MICs of the AMPs were assessed following these experimental procedures.

[16] = system: E. coli strains (ATCC 8739 and MDR clinical isolates); assay type: cell-based, Escherichia coli; conditions: ATCC 8739, 18 h
Method: as §2

| Compound | MIC against E. coli ATCC 8739 (E. coli (ATCC 8739) [8]) | MBC against E. coli ATCC 8739 (E. coli (ATCC 8739) [8]) | MIC against E. coli E12 [9] | MBC against E. coli E12 [9] | MIC against E. coli E14 [10] | MBC against E. coli E14 [10] | MIC against E. coli E16 [11] | MBC against E. coli E16 [11] | MIC against E. coli E18 [12] | MBC against E. coli E18 [12] | MIC against E. coli E9 [13] | MBC against E. coli E9 [13] | MIC against E. coli (ATCC 8739), Salt Stability CaCl2 (2.5 mM) (E. coli (ATCC 8739) [15]) | MIC against E. coli (ATCC 8739), Salt Stability KCl (4.5 mM) (E. coli (ATCC 8739) [15]) | MIC against E. coli (ATCC 8739), Salt Stability MgCl2 (1 mM) (E. coli (ATCC 8739) [15]) | MIC against E. coli (ATCC 8739), Salt Stability NaCl (150 mM) (E. coli (ATCC 8739) [15]) | MIC against E. coli (ATCC 8739), Thermal Stability 0°C (E. coli (ATCC 8739) [15]) | MIC against E. coli (ATCC 8739), Thermal Stability 37°C (E. coli (ATCC 8739) [15]) | MIC against E. coli (ATCC 8739), Thermal Stability 100°C (E. coli (ATCC 8739) [15]) | also measured |
| --- | --- | --- | --- | --- | --- | --- | --- | --- | --- | --- | --- | --- | --- | --- | --- | --- | --- | --- | --- | --- |
| CCN1CCN(c2cc3c(cc2F)c(=O)c(C(=O)O)cn3C2CC2)CC1 [enrofloxacin] |  |  |  |  |  |  |  |  |  |  |  |  |  |  |  |  |  |  |  | Drug sensitivity of E. coli ATCC 8739 (E. coli (ATCC 8739) [1]): S; Drug sensitivity of E. coli E18 [2]: R; Drug sensitivity of E. coli E9 [3]: R; Drug sensitivity of E. coli E1 [4]: R; Drug sensitivity of E. coli E12 [5]: R; Drug sensitivity of E. coli E14 [6]: R; Drug sensitivity of E. coli E16 [7]: R; 3-day mortality rate (E. coli (E16); 200 μg/mL, 500 μL into pectoral muscle 4h after 1.5×10^9 CFU E16): 50%; Survival rate compared with untreated group (in words) (E. coli (E16); 3 days): no difference in survival rate; Bacterial loads in the heart, liver and spleen (in words) (E. coli (E16); after 3 days of infection, vs infected untreated): affected only the heart bacterial load |
| RFGRNLRKIRRFWPK [C2-4] | 16 µg/mL | 16 µg/mL | 16 µg/mL | 32 µg/mL | 32 µg/mL | 64 µg/mL | 64 µg/mL | 64 µg/mL | 128 µg/mL | 128 µg/mL | 64 µg/mL | 128 µg/mL | 32 µg/mL | 32 µg/mL | 16 µg/mL | 32 µg/mL | 16 µg/mL | 16 µg/mL | 16 µg/mL | MIC against E. coli E1 ([14]; clinical isolate E1, 18 h): 128 µg/mL; MBC against E. coli E1 ([14]; clinical isolate E1, 24 h): 128 µg/mL |
| RFGRFLRKIRRFIPK [C2-1] | 2 µg/mL | 4 µg/mL | 1 µg/mL | 1 µg/mL | 16 µg/mL | 16 µg/mL | 16 µg/mL | 64 µg/mL | 2 µg/mL | 4 µg/mL | 0.5 µg/mL | 1 µg/mL | 8 µg/mL | 2 µg/mL | 2 µg/mL | 0.5 µg/mL | 2 µg/mL | 2 µg/mL | 2 µg/mL | MBC against E. coli E1 ([14]; 50 μL from fully inhibited wells plated on LB agar, colonies counted after 24h 37°C): 16 µg/mL; MIC against E. coli E1 ([14]; microbroth dilution, 1×10^6 CFU/mL, 37°C 18h, turbidity): 16 µg/mL; MIC range over E. coli strains [16]: 0.5 to 16 µg/mL |
